Like-named read-outs stand apart in the source and are kept apart here.
Tests used:
[1] = target: T1, human α2B adrenergic receptor (Homo sapiens, UniProt P18089); assay: Agonist activity: inhibition of forskolin-stimulated cAMP synthesis; assay type: cell-based; details: for I.A (Intrinsic Activity) Alpha-2 B: maximum activity relative to maximum activity induced by norepinephrine, human α2B
T1 construct: expressed in transfected cells
T1 sequence (P18089 1-450): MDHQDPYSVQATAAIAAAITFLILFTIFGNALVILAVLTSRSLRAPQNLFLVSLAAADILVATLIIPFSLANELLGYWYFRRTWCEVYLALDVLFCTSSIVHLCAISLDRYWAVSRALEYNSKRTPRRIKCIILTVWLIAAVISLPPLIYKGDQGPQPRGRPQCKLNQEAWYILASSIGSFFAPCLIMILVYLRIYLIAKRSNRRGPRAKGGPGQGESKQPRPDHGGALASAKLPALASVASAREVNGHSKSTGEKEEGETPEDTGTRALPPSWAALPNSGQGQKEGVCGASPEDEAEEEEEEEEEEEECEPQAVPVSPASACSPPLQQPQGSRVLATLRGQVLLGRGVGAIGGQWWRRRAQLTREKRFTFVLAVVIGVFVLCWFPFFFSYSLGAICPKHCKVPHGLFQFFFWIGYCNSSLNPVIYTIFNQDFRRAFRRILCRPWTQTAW

[2] = target: T1, human α2B adrenergic receptor; assay: Radioligand binding assay, [3H]rauwolscine competition
[3] = target: T2, human α1A adrenergic receptor (Homo sapiens, UniProt P25100); assay: Radioligand binding assay, [3H]prazosin competition; details: cloned human α1A (old nomenclature; = α1D), LM(tk-) cell membranes, read-out: pKi Alpha-1 A (converted)
T2 construct: expressed in transfected cells
T2 sequence (P25100 1-572): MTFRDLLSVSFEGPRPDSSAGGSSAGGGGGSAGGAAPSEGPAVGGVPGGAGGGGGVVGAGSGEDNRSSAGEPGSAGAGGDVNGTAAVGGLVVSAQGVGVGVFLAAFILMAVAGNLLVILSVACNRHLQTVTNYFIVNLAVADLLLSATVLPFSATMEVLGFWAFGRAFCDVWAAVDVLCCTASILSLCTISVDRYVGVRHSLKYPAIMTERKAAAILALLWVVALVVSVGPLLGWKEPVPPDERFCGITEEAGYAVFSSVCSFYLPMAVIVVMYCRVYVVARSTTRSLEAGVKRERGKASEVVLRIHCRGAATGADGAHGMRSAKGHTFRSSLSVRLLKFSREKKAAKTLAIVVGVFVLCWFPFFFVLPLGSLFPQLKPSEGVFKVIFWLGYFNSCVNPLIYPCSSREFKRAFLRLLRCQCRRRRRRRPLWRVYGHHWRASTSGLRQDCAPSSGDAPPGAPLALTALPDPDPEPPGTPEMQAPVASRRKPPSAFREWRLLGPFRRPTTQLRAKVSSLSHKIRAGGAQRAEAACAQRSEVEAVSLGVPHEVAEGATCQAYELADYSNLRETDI
Experimental: Equilibrium competition binding assays were performed with membrane preparations from cultured LM(tk^−) cells stably transfected with the cloned human alpha adrenoreceptor subtypes except for α2b, which was expressed in Y-1 cells, using [^3H] prazosin for α1 receptors and [^3H] rauwolscine for α2 receptors. Further details of pharmacological evaluations of claimed compounds are described in Example 21.
The cloned human alpha-1 adrenergic receptor subtypes referred to throughout this application as α1A, α1B, and α1C have recently been assigned new subtype designations by the IUPHAR Nomenclature Committee as outlined in the 1995 Receptor and Ion Channel Nomenclature Supplement (Watson and Girdlestone, 1995). In the new nomenclature system the cloned human α1A receptor referred to herein was given the appellation “α1D,” while the cloned human α1C receptor referred to herein was given the appellation “α1A”. However, throughout this application and the supporting tables and figures the old nomenclature will be used to describe the cloned human alpha-1 adrenergic receptor subtypes. The old nomenclature is used throughout this application because stable cell lines expressing the cloned human alpha-1 adrenergic receptors were produced and deposited with the ATCC according to the Budapest Treaty for the Deposit of Microorganisms, under designations assigned before the nomenclature change.
The construct involved the ligation of partial overlapping human lymphocyte genomic and hippocampal cDNA clones: 5′ sequences were contained on a 1.2 kb SmaI-XhoI genomic fragment (the vector-derived BamHI site was used for subcloning instead of the internal insert-derived SmaI site) and 3′ sequences were contained on 1.3 kb XhoI-ClaI cDNA fragment (the ClaI site was from the vector polylinker). Stable cell lines were produced and selected as described above.
Transfected cells from culture flasks were scraped into 5 mL of 5 mM Tris-HCl, 5 mM EDTA, pH 7.5, and lysed by sonication. The cell lysates were centrifuged at 1000 rpm for 5 min at 4° C., and the supernatant was centrifuged at 30,000×g for 20 min at 4° C. The pellet was suspended in 50 mM Tris-HCl, 1 mM MgCl2, and 0.1% Ascorbic acid at pH 7.5. Binding of α2 antagonist [^3H] rauwolscine ([…]) to membrane preparations of LM(tk−) cells was done in a final volume of 0.25 mL and incubated at 37° C. for 20 min. Nonspecific binding was determined in the presence of 10 μM phentolamine. The reaction was stopped by filtration through GF/B filters using a cell harvester.

[4] = inhibition of forskolin-stimulated cAMP, stably transfected cells expressing human α2B, read-out: pEC50 Alpha-2 B (converted)

SMILES	EC50 [1, 4]	I.A (Intrinsic Activity) Alpha-2 B [1]	Ki [2]	Ki [3]	Ki ([2]; cloned human α2B, Y-1 cell membranes, [3H]rauwolscine, read-out: pKi Alpha-2 B (converted))	EC50 [1]
c1nc2cc(NC3=NCCN3)ccc2s1 [Example 13, 5-(2-Imidazolin-2-ylamino)benzothiazole]	10.2 nM	0.82	4.57 nM	186 nM	–	–
CC(=O)c1cc(NC2=NCCN2)cc2cc[nH]c12 [Example 6, 7-Acetyl-5-(2-imidazolin-2-ylamino)indole]	81.3 nM	0.70	45.7 nM	93.3 nM	–	–
N#Cc1cc(NC2=NCCN2)cc2cc[nH]c12 [Example 5, 7-Cyano-5-(2-imidazolin-2-ylamino)indole]	316 nM	0.60	15.5 nM	162 nM	–	–
Brc1cc(NC2=NCCN2)cc2cc[nH]c12 [Example 2, 7-Bromo-5-(2-imidazolin-2-ylamino)indole]	1.91 nM	0.75	2.88 nM	2.88 nM	–	–
c1nc2ccc(NC3=NCCS3)cc2s1 [Example 15, 6-(2-Thiazolin-2-ylamino)benzothiazole]	138 nM	0.57	–	6030 nM	162 nM	–
c1nc2ccc(NC3=NCCN3)cc2s1 [Example 14, 6-(2-Imidazolin-2-ylamino)benzothiazole]	–	0.47	14.1 nM	1700 nM	–	14.1 nM
